Source: publication PMC9186373, “Design, synthesis, and biological evaluation of novel carbazole derivatives as potent DNMT1 inhibitors with reasonable PK properties” (Journal of Enzyme Inhibition and Medicinal Chemistry, 2022)

Experiments:
[1] = PK study in SD rats; format: in vivo; details: rat, plasma, SD male rats; for AUC(0-t) / Tmax / half-life: mean ± SD (n = 3); for bioavailability: p.o. 10 mg/kg vs i.v. 2 mg/kg, F = (AUC p.o. × Dose i.v.)/(AUC i.v. × Dose p.o.) × 100%
Description: In vivo pharmacokinetic properties of WK-22, WK-23, WK-27, and DC_517 were performed by Medicilon Company, Shanghai, China. SPF-grade SD male rats (8 groups, n = 3 rats per group) with a body weight of 230–260 g were purchased from Shanghai SIPPR-BK LAB Animal Ltd., Shanghai, China, and used for the pharmacokinetic analysis of the tested compounds. All animals were deprived of food overnight after the cannulation surgery. Subsequently, the tested compounds WK-23 and DC_517 were dissolved/suspended in 5% DMSO, 10% Solutol, and 85% water, and the tested compounds WK-22 and WK-27 were dissolved/suspended in 5% DMSO, 40% PEG400, and 55% saline for intravenous administration (i.v.) and oral administration (p.o.), respectively. A final dosage of 2.0 and 10.0 mg/kg rat of the formulated compounds was administered for i.v. and p.o. purposes, respectively, and the blood samples were taken at various time points during a 24 h period. At different time points, blood samples were collected from the femoral vein. The plasma samples were obtained after centrifugation (6800 g, 6 min, 2–8 °C) and stored at −80 °C until the assay. The AUC (area under concentration-time curve) was calculated through the trapezoidal rule with extrapolation to time infinity. The concentration of the compounds in the blood was analysed by LC-MS/MS (Shimadzu liquid chromatographic system and SCIEX Triple Quad 5500+ mass spectrometer, Applied Biosystems, Ontario, Canada). The Tmax, T1/2, and Cmax value was obtained through visual inspection of the plasma concentration-time curve. The Vss value was generated from DAS 3.2.8 software. The F value of WK-23 was calculated with the formula: F = (AUC p.o. × Dose i.v.)/(AUC i.v. × Dose p.o.) × 100%.

| AUC(0-t) ([1]; iv, i.v. (2 mg/kg)) [ng·h/mL] | Tmax ([1]; iv, i.v. (2 mg/kg)) [h] | half-life ([1]; iv, i.v. (2 mg/kg)) [min] | bioavailability ([1]; oral) [%] | bioavailability ([1]; po) [%] | AUC(0-t) ([1]; po, p.o. (10 mg/kg)) [ng·h/mL] | Tmax ([1]; po, p.o. (10 mg/kg)) [h] | half-life ([1]; po, p.o. (10 mg/kg)) [min] | melting point [°C] | Structure (SMILES) |
| --- | --- | --- | --- | --- | --- | --- | --- | --- | --- |
| 867 ± 15.9 | 0.1 | 732 ± 48 | 27 | 27 ± 4.6 | 1170 ± 197 | 7.3 ± 1.2 | 528 ± 78 | 89 to 91 | CC(C)NCC(O)COC(Cn1c2ccc(F)cc2c2cc(F)ccc21)Cn1c2ccc(F)cc2c2cc(F)ccc21 (stereo not shown) [WK-22, 1-((1,3-Bis(3,6-difluoro-9H-carbazol-9-yl)propan-2-yl)oxy)-3-(isopropylamino)propan-2-ol] |
| 1060 ± 121 | 0.08 | 474 ± 60 |  | 37.1 ± 1.7 | 1970 ± 91.1 | 6.7 ± 1.2 | 390 ± 18 |  | CC(C)NCC(O)COC(Cn1c2ccccc2c2cc(F)ccc21)Cn1c2ccccc2c2cc(F)ccc21 (stereo not shown) [WK-23, 1-((1,3-bis(3-fluoro-9H-carbazol-9-yl)propan-2-yl)oxy)-3-(isopropylamino)propan-2-ol] |
